Test results taken from the supplement of paper PMC10307832.

Columns and labels:
Assay in all cases: relative viability (nuclei count vs DMSO), 5 days (fraction); higher = more cells survive
Wnt-C59 + Lapatinib = compound: CC1=NC=CC(=C1)C2=CC=C(C=C2)CC(=O)NC3=CC=C(C=C3)C4=CN=CC=C4 [Wnt-C59] + CS(=O)(=O)CCNCc1ccc(-c2ccc3ncnc(Nc4ccc(OCc5cccc(F)c5)c(Cl)c4)c3c2)o1 [Lapatinib] (partner 2 µM)
In short: (§1)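 Lung cancer cell lines in 1536-well plates got either a single drug or a fixed anchor-drug dose together with five library-drug doses (not always all listed) in √10 steps, by pin tool, on the day after seeding. Nuclei were counted after 5 days, and relative viability is the treated-to-vehicle ratio of nuclei counts. Values are medians of duplicate plates.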

Wnt-C59 + Vorinostat = compound: CC1=NC=CC(=C1)C2=CC=C(C=C2)CC(=O)NC3=CC=C(C=C3)C4=CN=CC=C4 [Wnt-C59] + O=C(CCCCCCC(=O)Nc1ccccc1)NO [Vorinostat] (partner 1 µM)
In short: as §1

Lapatinib + Pictilisib = compound: CS(=O)(=O)CCNCc1ccc(-c2ccc3ncnc(Nc4ccc(OCc5cccc(F)c5)c(Cl)c4)c3c2)o1 [Lapatinib] + CS(=O)(=O)N1CCN(Cc2cc3nc(-c4cccc5[nH]ncc45)nc(N4CCOCC4)c3s2)CC1 [Pictilisib] (partner 1 µM)
In short: as §1

Lapatinib + Tozasertib = compound: CS(=O)(=O)CCNCc1ccc(-c2ccc3ncnc(Nc4ccc(OCc5cccc(F)c5)c(Cl)c4)c3c2)o1 [Lapatinib] + Cc1cc(Nc2cc(N3CCN(C)CC3)nc(Sc3ccc(NC(=O)C4CC4)cc3)n2)n[nH]1 [Tozasertib] (partner 0.1 µM)
In short: as §1

Cell Line	relative viability (Wnt-C59 + Lapatinib; first compound 0.001 µM)	relative viability (Wnt-C59 + Lapatinib; first compound 0.01 µM)	relative viability (Wnt-C59 + Lapatinib; first compound 0.03162 µM)	relative viability (Wnt-C59 + Lapatinib; first compound 0.1 µM)	relative viability (Wnt-C59 + Vorinostat; first compound 0.001 µM)	relative viability (Wnt-C59 + Vorinostat; first compound 0.01 µM)	relative viability (Wnt-C59 + Vorinostat; first compound 0.03162 µM)	relative viability (Wnt-C59 + Vorinostat; first compound 0.1 µM)	relative viability (Lapatinib + Pictilisib; first compound 0.02 µM)	relative viability (Lapatinib + Pictilisib; first compound 0.06325 µM)	relative viability (Lapatinib + Pictilisib; first compound 0.2 µM)	relative viability (Lapatinib + Pictilisib; first compound 0.6325 µM)	relative viability (Lapatinib + Pictilisib; first compound 2 µM)	relative viability (Lapatinib + Tozasertib; first compound 0.02 µM)	relative viability (Lapatinib + Tozasertib; first compound 0.06325 µM)	relative viability (Lapatinib + Tozasertib; first compound 0.2 µM)	relative viability (Lapatinib + Tozasertib; first compound 0.6325 µM)	relative viability (Lapatinib + Tozasertib; first compound 2 µM)
H3255	0.278	0.283	0.259	0.242	0.79	0.71	0.95	0.86	0.452	0.403	0.397	0.284	0.155	0.317	0.45	0.591	0.527	0.282
NCI-H23	1.14	1.11	1.31	0.958	0.499	0.541	0.737	0.59			0.506	0.482	0.483			0.29	0.307	0.218
NCI-H2087	1.01	1.04	1.08	0.908	0.905	0.336	0.788	0.764	0.472	0.737	1.03	0.963	0.802		0.233	0.267	0.186	0.215
SK-LU-1	0.798	0.789	0.915	0.823	0.672	0.768	0.81	0.682		0.504	0.634	0.754	0.57	0.32	0.306	0.3	0.29	0.235
NCI-H2347	0.961	0.861	0.976	0.854	0.649	0.644	0.572	0.717	0.598	0.673	0.663	0.646	0.873		0.57	0.52	0.439	0.399
NCI-H596	1.07	1.1	1.2	1.13	0.601	0.603	0.59	0.76	0.39	0.388	0.4	0.415	0.407		0.741	0.856	0.779	0.567
ABC-1	1.1	1.18	1.14	1.19	1.05	1.07	1.07	1.18		0.655	1.09	0.93	0.696	0.155	0.187	0.156	0.155	0.16
NCI-H661	0.418	0.613	0.558	0.577	0.815	0.726	0.854	0.755	0.397	0.381	0.29	0.307	0.324	0.377	0.367	0.358	0.348	0.352
LU99A	0.905	0.999	1.07	0.97	0.486	0.474	0.484	0.442	0.337	0.26	0.345	0.346	0.372	0.281	0.293	0.239	0.195	0.216
SW 1573	1.06	0.906	1.05	1.12	0.801	0.673	0.778	0.662	0.471	0.444	0.61	0.452	0.533	0.121	0.164	0.143	0.12	0.159
NCI-H1734	0.948	1.04	1.09	1.02	0.76	0.822	0.833	0.816		0.354	0.451	0.47	0.534	0.272	0.276	0.274	0.242	0.232
NCI-H2126	0.78	0.731	0.792	0.772	0.841	0.62	0.788	0.76		0.402	0.474	0.49	0.431		0.664	0.844	0.712	0.547
NCI-H838	0.901	0.924	1.07	1.08	0.709	0.704	0.786	0.708	0.48	0.409	0.505	0.449	0.458	0.235	0.257	0.256	0.258	0.221
HCC-78	0.632	0.721	0.901	0.741	0.439	0.407	0.476	0.484		0.265	0.196	0.21	0.208		0.327	0.407	0.377	0.328
NCI-H2228	1.3	1.07	0.801	0.874	0.654	0.657	0.587	0.838	0.51	0.321	0.567	0.403	0.259	0.25	0.258	0.145	0.205	0.135
NCI-H460	0.863	0.999	1.11	0.889	0.688	0.711	0.743	0.648	0.057	0.276	0.303	0.355	0.251	0.0815	0.298	0.0669	0.0896	0.06
NCI-H2023	0.715	0.93	1.17	0.666	0.757	0.499	0.742	0.487	0.164	0.15	0.262	0.276	0.199	0.249		0.191	0.204	0.137
HOP-62	0.907	0.996	1.04	1.03	0.639	0.576	0.508	0.637		0.66	0.76	0.816	0.672	0.334	0.343	0.377	0.343	0.295
